Assays:
[1] = system: sterlet and catfish mother fishes; experiment: spawning (roe deposition / ovulation) of sterlet and catfish mother fishes; format: in vivo; settings: control group under the same conditions
cattle = experiment: pregnancy ratio of cattle, dosing simultaneously with insemination; format: in vivo; settings: same dose (100 μg/dose)
blue and silver foxes = experiment: extra-seasonal rutting of blue and silver foxes; format: in vivo; settings: single dose of 10 μg
female turkeys = experiment: brooding time of female turkeys; format: in vivo, turkey

Substance | ovulation (in words) [1] | effect on the pregnancy ratio (in words) (cattle) | extra-seasonal rutting (blue and silver foxes) | brooding time (female turkeys)
D-Phe^6, desGly^10 -LH-RH-ethylamide | no ovulation occurred | – | – | –
native LH-RH: gonadoliberine, gonadotrop releasing hormone; native hormone used as comparator (QHWSYGLRPG; Gonadoliberin-1; UniProt P01148 24-33, looked up) | – | not efficacious | inefficacious | ineffective

From patent publication US4600705A, “Gonadoliberin derivatives containing a β-aspartyl group, a process for the preparation thereof and pharmaceutical preparations containing them” (Richter Gedeon Veyteszeti Gyar R.T., priority 1983, dated 1986)
